In EP4684784A1, “ANTI-INFLAMMATORY COSMETIC COMPOSITION” (LG Chem, Ltd., priority 2023, dated 2025):

System: Mouse macrophages
Test: Evaluation of reactive nitrogen species inhibiting ability (nitric oxide production, Griess reagent, LPS-treated macrophages)
Type: cell-based
Conditions: for Nitrogen oxide concentration, Average / Nitrogen oxide concentration, Once / Nitrogen oxide concentration, Two times / Nitrogen oxide concentration, Three times: LPS 1 µg/ml, cultured 24 hours; for Nitrogen oxide concentration, Average: average of three; for Nitrogen oxide concentration, Once: replicate 1; for Nitrogen oxide concentration, Two times: replicate 2; for Nitrogen oxide concentration, Three times: replicate 3
Protocol: Mouse macrophages were divided into 1X10^6 cells in a 6-well plate and cultured for 24 hours, then treated with LPS (Lipopolysaccharide, concentration 1 µg/ml) solution, and treated with the 3-hydroxypropionic acid aqueous solution according to Preparation Example 1 at four concentrations (3HP concentration: 0 wt.%, 0.0125 wt.%, 0.025 wt.%, 0.05 wt.%), and then cultured again for 24 hours. Only the medium was then separated and centrifuged for 10 minutes to collect only the supernatant. The supernatant was mixed with Griess reagent (Sigma-Aldrich) reagent in a 1:1 ratio and reacted at room temperature, and then the absorbance (OD, wavelength 540 nm) was measured using a microplate reader. The measured value was substituted into the regression equation obtained from the standard curve prepared by reacting Griess reagent (Sigma-Aldrich) and NaNO2 in a 1:1 ratio to calculate the amount of nitric oxide(NO) produced. Here, the case in which neither the LPS solution nor the 3HP aqueous solution was treated was performed as a negative control group.

For `O=C(O)CCO` [Example 3HP, 3-hydroxypropionic acid], the “Nitrogen oxide concentration, Average” value (3HP concentration 0.0125 wt.%) was 64.949 µM, the “Nitrogen oxide concentration, Once” value (3HP concentration 0.0125 wt.%) was 63.956 µM and the “Nitrogen oxide concentration, Two times” value (3HP concentration 0.0125 wt.%) was 64.800 µM. For the same molecule, the “Nitrogen oxide concentration, Three times” value (3HP concentration 0.0125 wt.%) was 66.093 µM, the “Nitrogen oxide concentration, Average” value (3HP concentration 0.025 wt.%) was 64.774 µM and the “Nitrogen oxide concentration, Once” value (3HP concentration 0.025 wt.%) was 63.138 µM. The “Nitrogen oxide concentration, Two times” value (3HP concentration 0.025 wt.%) was 65.222 µM, the “Nitrogen oxide concentration, Three times” value (3HP concentration 0.025 wt.%) was 65.961 µM and the “Nitrogen oxide concentration, Average” value (3HP concentration 0.05 wt.%) was 56.630 µM. The “Nitrogen oxide concentration, Once” value (3HP concentration 0.05 wt.%) was 56.146 µM, the “Nitrogen oxide concentration, Two times” value (3HP concentration 0.05 wt.%) was 56.357 µM and the “Nitrogen oxide concentration, Three times” value (3HP concentration 0.05 wt.%) was 57.386 µM. For the same molecule, the “inhibiting the production of reactive nitrogen species” value (under the treatment concentrations 0.0125 to 0.05 wt.%, result in words) was “effect of inhibiting the production of reactive nitrogen species was exhibited”.
